Test results: ChEMBL document CHEMBL1201862, “PubChem BioAssay data set” (2004)
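Briefly, cells in 96-well plates were exposed to five compound concentrations for 48 h, and endpoints were estimated by linear interpolation. GI50 marks 50% less growth.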 Activity calls are given as the source filed them. Cut-off read from the data, not from the text of the source: active = GI50 up to about 1.1 µM and inactive = higher.

How the values were obtained:
Test in all cases: NCI tumour cell line growth inhibition, 48 h
COLO 205 = test system: COLO 205
HCC 2998 = test system: HCC 2998
HCT-15 = test system: HCT-15
Hs-578T = test system: Hs-578T
MOLT-4 = test system: MOLT-4
Malme-3M = test system: Malme-3M
NCI-H522 = test system: NCI-H522
OVCAR-4 = test system: OVCAR-4
OVCAR-5 = test system: OVCAR-5
RPMI-8226 = test system: RPMI-8226
SF-268 = test system: SF-268
SF-539 = test system: SF-539
UACC-257 = test system: UACC-257
UACC-62 = test system: UACC-62
EKVX = test system: EKVX
NCI-H226 = test system: NCI-H226
NCI-H460 = test system: NCI-H460
SK-MEL-2 = test system: SK-MEL-2
UO-31 = test system: UO-31
MDA-N = test system: MDA-N

Structure (SMILES)	GI50 (COLO 205)	GI50 (HCC 2998)	GI50 (HCT-15)	GI50 (Hs-578T)	GI50 (MOLT-4)	GI50 (Malme-3M)	GI50 (NCI-H522)	GI50 (OVCAR-4)	GI50 (OVCAR-5)	GI50 (RPMI-8226)	GI50 (SF-268)	GI50 (SF-539)	GI50 (UACC-257)	GI50 (UACC-62)	GI50 (EKVX)	GI50 (NCI-H226)	GI50 (NCI-H460)	GI50 (SK-MEL-2)	GI50 (UO-31)	GI50 (MDA-N)
CC1(C)CNC(=O)C2(CCCO2)CNC(C)(C)CNC(=O)C2(CCCO2)CN1 (configuration not stated)	> 10 µM (inactive)	> 10 µM (inactive)	> 10 µM	> 10 µM (inactive)	> 10 µM (inactive)	> 10 µM (inactive)	> 10 µM (inactive)	> 10 µM (inactive)	> 10 µM (inactive)	> 10 µM (inactive)	> 10 µM (inactive)	> 10 µM (inactive)	> 10 µM (inactive)	> 10 µM (inactive)						
O=C(NCc1ccc2ccc3cccnc3c2n1)c1ccc[n+](Cc2ccccc2)c1	> 100 µM (inactive)	> 100 µM (inactive)	> 100 µM		> 100 µM (inactive)	75.2 µM (inactive)	> 100 µM (inactive)	> 100 µM (inactive)	> 100 µM (inactive)	54.8 µM (inactive)	> 100 µM (inactive)	> 100 µM (inactive)	> 100 µM (inactive)	> 100 µM (inactive)	> 100 µM (inactive)	> 100 µM (inactive)	> 100 µM (inactive)	> 100 µM (inactive)	> 100 µM (inactive)	
COc1cccc(C2=NC(C(C)C)CO2)c1OC (configuration not stated)	> 100 µM (inactive)	> 100 µM (inactive)	> 100 µM		> 100 µM (inactive)	> 100 µM (inactive)	> 100 µM (inactive)	> 100 µM (inactive)	> 100 µM (inactive)	> 100 µM (inactive)	> 100 µM (inactive)	> 100 µM (inactive)	> 100 µM (inactive)	> 100 µM (inactive)	> 100 µM (inactive)	> 100 µM (inactive)	> 100 µM (inactive)	> 100 µM (inactive)	> 100 µM (inactive)	
COC(=O)[C@H]1C2CC[C@@H]3C45C[C@@H](c6ccoc6)O[C@@H]4O[C@@H](O2)C31CCC5C (some centres not stated)	> 100 µM (inactive)	95.9 µM (inactive)	86.3 µM		69.7 µM (inactive)	> 100 µM (inactive)	91.6 µM (inactive)	> 100 µM (inactive)	> 100 µM (inactive)	> 100 µM (inactive)	> 100 µM (inactive)	> 100 µM (inactive)	> 100 µM (inactive)	> 100 µM (inactive)	92.3 µM (inactive)	76.7 µM (inactive)	> 100 µM (inactive)	71.1 µM (inactive)	68.5 µM (inactive)	
CN/N=C(/CC(=O)c1sc(NNC(C)=O)nc1C)C(=O)Nc1ccc(OC)cc1OC	> 100 µM (inactive)	> 100 µM (inactive)	> 100 µM		> 100 µM (inactive)	> 100 µM (inactive)	> 100 µM (inactive)	> 100 µM (inactive)	> 100 µM (inactive)	> 100 µM (inactive)	> 100 µM (inactive)	> 100 µM (inactive)	> 100 µM (inactive)	> 100 µM (inactive)	59.7 µM (inactive)	> 100 µM (inactive)	> 100 µM (inactive)	> 100 µM (inactive)	> 100 µM (inactive)	
O=C(Nc1ccc2[nH]c(C(=O)N3CC(CCl)c4c3cc([N+](=O)[O-])c3ccccc43)cc2c1)Nc1ccc2[nH]c(C(=O)N3CC(CCl)c4c3cc([N+](=O)[O-])c3ccccc43)cc2c1 (configuration not stated)	> 100 µM (inactive)		> 100 µM			> 100 µM (inactive)	> 100 µM (inactive)	> 100 µM (inactive)	> 100 µM (inactive)	85.7 µM (inactive)	> 100 µM (inactive)	> 100 µM (inactive)	> 100 µM (inactive)	> 100 µM (inactive)	> 100 µM (inactive)	> 100 µM (inactive)	> 100 µM (inactive)	> 100 µM (inactive)	17.9 µM (inactive)	> 100 µM (inactive)
CCOC(=O)CC(NCc1ccc(/N=C/c2nc3ccc(C(F)(F)F)cc3nc2-c2ccccc2)cc1)C(=O)OCC (configuration not stated)	> 100 µM (inactive)	27 µM (inactive)	> 100 µM		> 100 µM (inactive)	> 100 µM (inactive)	> 100 µM (inactive)	> 100 µM (inactive)	> 100 µM (inactive)	> 100 µM (inactive)	> 100 µM (inactive)	17.9 µM (inactive)	> 100 µM (inactive)	13.7 µM (inactive)	> 69.5 µM (inactive)	> 100 µM (inactive)	> 100 µM (inactive)	> 47.3 µM (inactive)	> 100 µM (inactive)	
CCCCCN(CCCCC)C(=O)[C@H](CCC(=O)OCc1ccccc1)NC(=O)c1cc2ccccc2[nH]1	> 100 µM (inactive)	> 100 µM (inactive)	> 100 µM		> 100 µM (inactive)	> 100 µM (inactive)	> 100 µM (inactive)	> 100 µM (inactive)	> 100 µM (inactive)	0.343 µM (active)	> 100 µM (inactive)	> 100 µM (inactive)	> 100 µM (inactive)	> 100 µM (inactive)	> 100 µM (inactive)	> 100 µM (inactive)	> 100 µM (inactive)	> 100 µM (inactive)	> 100 µM (inactive)	
CCOC(=O)C1=C(O)C(=O)c2ccsc2C1=O	> 100 µM (inactive)	> 100 µM (inactive)	> 100 µM		> 100 µM (inactive)	> 100 µM (inactive)	69.3 µM (inactive)	> 100 µM (inactive)	> 100 µM (inactive)	> 100 µM (inactive)	> 100 µM (inactive)	> 100 µM (inactive)	> 100 µM (inactive)	> 100 µM (inactive)	> 100 µM (inactive)	> 100 µM (inactive)	> 100 µM (inactive)	> 100 µM (inactive)	> 100 µM (inactive)	
C[C@@H]1C(=O)O[C@H]1[C@H](O)CO	> 100 µM (inactive)	> 100 µM (inactive)	> 100 µM		34.1 µM (inactive)			> 100 µM (inactive)	> 100 µM (inactive)	94.2 µM (inactive)			> 100 µM (inactive)	> 100 µM (inactive)	> 100 µM (inactive)		> 100 µM (inactive)	> 100 µM (inactive)	> 10 µM (inactive)	> 100 µM (inactive)
COc1ccc2nc3ccccc3c(NCCCCN(C)CCCl)c2c1	< 0.01 µM (active)	0.0893 µM (active)	0.0185 µM		< 0.01 µM (active)	0.33 µM (active)	< 0.0143 µM (active)	0.0889 µM (active)	0.186 µM (active)	< 0.01 µM (active)	0.0186 µM (active)	0.0689 µM (active)	0.581 µM (active)	0.0373 µM (active)	0.393 µM (active)	0.0692 µM (active)	0.014 µM (active)	0.146 µM (active)	0.107 µM (active)	
O=C1c2ccc3c4ccccc4n(Cc4ccccc4)c3c2C(=O)N1c1ccccc1	3.52 µM (inactive)	18.3 µM (inactive)	10.8 µM		3.05 µM (inactive)	16.2 µM (inactive)	2.62 µM (inactive)	8.3 µM (inactive)	17.6 µM (inactive)	9.02 µM (inactive)	19.9 µM (inactive)	17.1 µM (inactive)	15.8 µM (inactive)	17.3 µM (inactive)	17.5 µM (inactive)	12.8 µM (inactive)	58.7 µM (inactive)	22.9 µM (inactive)	16.5 µM (inactive)	
COC(=O)C(=O)C(C(=O)C(=O)Nc1cccc(C(C)=O)c1)c1nc2ccc([N+](=O)[O-])cc2nc1O (configuration not stated)	> 100 µM (inactive)	> 100 µM (inactive)	> 100 µM		> 100 µM (inactive)	> 100 µM (inactive)	> 100 µM (inactive)	> 100 µM (inactive)	> 100 µM (inactive)	> 100 µM (inactive)	> 100 µM (inactive)	> 100 µM (inactive)	> 100 µM (inactive)	> 100 µM (inactive)	> 100 µM (inactive)	> 100 µM (inactive)	> 100 µM (inactive)	> 100 µM (inactive)	> 100 µM (inactive)	
CCOC(=O)C1OC(=O)CC1C1(C(=O)OCC)C=CC(=O)O1 (configuration not stated)	> 100 µM (inactive)	> 100 µM (inactive)	> 100 µM		> 100 µM (inactive)	> 100 µM (inactive)	> 100 µM (inactive)	> 100 µM (inactive)	> 100 µM (inactive)	> 100 µM (inactive)	> 100 µM (inactive)	> 100 µM (inactive)	> 100 µM (inactive)	> 100 µM (inactive)	> 100 µM (inactive)	> 100 µM (inactive)	17.9 µM (inactive)	> 100 µM (inactive)	> 100 µM (inactive)	> 100 µM (inactive)
CC1=C(C)C(=O)C2=C(OCCO2)C1=O	17.6 µM (inactive)	19.5 µM (inactive)	17.5 µM		2.55 µM (inactive)	15.9 µM (inactive)			19.7 µM (inactive)	2.34 µM (inactive)	27.1 µM (inactive)	19.9 µM (inactive)	13.8 µM (inactive)		15.1 µM (inactive)	24.3 µM (inactive)	20.6 µM (inactive)		10.1 µM (inactive)	10.3 µM (inactive)
COc1ccccc1OCc1nnc(SCC(=O)O)n1-c1ccccc1	> 100 µM (inactive)	> 100 µM (inactive)	> 100 µM		> 100 µM (inactive)	> 100 µM (inactive)	> 100 µM (inactive)	> 100 µM (inactive)	> 100 µM (inactive)	> 100 µM (inactive)	> 100 µM (inactive)	> 100 µM (inactive)	> 100 µM (inactive)	> 100 µM (inactive)	> 100 µM (inactive)	> 100 µM (inactive)	> 100 µM (inactive)	> 100 µM (inactive)	> 100 µM (inactive)	
